# Measurements taken from paper PMC6300130 (Journal of medicinal chemistry, 2018).
# pIC50: −log10 of the molar value. Where “and” joins values, the source holds several entries; their conditions need not be identical. Equal entries are not always repeated. Where two headings read alike, the source gives them in different places.
# Columns and labels:
# [1] = tested on: Mycobacterium tuberculosis (Mtb) DXR; settings: cited from earlier work
# [2] = tested on: P. falciparum had1 mutant strain; assay: Growth inhibition of had1 mutant P. falciparum; assay type: cell-based, Plasmodium falciparum; settings: for sensitivity in had1 + HAD1-GFP strain: mutant supplied with wild-type copy of HAD1
# HepG2 cells = assay: HepG2 cytotoxicity; assay type: cell-based, human; settings: HepG2 IC50/P. falciparum IC50
# P. falciparum strain 3D7 [3] = assay: IPP rescue of inhibitor-treated P. falciparum; assay type: cell-based, Plasmodium falciparum; settings: 125 μM IPP, 72 h
# [4] = Tolerability in mice during efficacy study; assay type: in vivo, mouse; settings: 20 and 50 mg/kg ip daily for 5 days
# [5] = tested on: MEP pathway metabolites in P. falciparum 3D7 parasites; assay: MEP pathway metabolite profiling by LC-MS/MS; assay type: cell-based, Plasmodium falciparum; settings: 5× the IC50 value, 10 h
# [6] = tested on: P. falciparum had1 mutant strain; settings: cited from earlier work
# P. falciparum strain 3D7 [7] = settings: cited from earlier work
# Mtb = settings: cited from earlier work
# [8] = cited from earlier work
compound,measurement,setting,value
CC(=O)N(O)C/C=C/P(=O)([O-])O.[Na+] [compound 2],increase in potency against Mtb DXR compared with FR900098,[1],2 fold
same,pIC50,[1]; read-out: Mtb DXR IC50,5.97
"O=CN(O)C/C=C/P(=O)([O-])O.[Na+] [12a, Sodium Hydrogen [(1E)-3-(N-Hydroxyformamido)prop-1-en-1-yl]phosphonate]",sensitivity in had1 + HAD1-GFP strain,[2],restored
same,SI^Pf selectivity index,HepG2 cells,> 2632
same,rescue of growth by exogenous IPP,P. falciparum strain 3D7 [3],effectively rescues growth
"CC(C)(C)C(=O)OCOP(=O)(/C=C/CN(O)C=O)OCOC(=O)C(C)(C)C [18a, [({[(2,2-Dimethylpropanoyl)oxy]methoxy}[(1E)-3-(N-hydroxyformamido)prop-1-en-1-yl]phosphoryl)oxy]methyl 2,2-Dimethylpropanoate]",sensitivity in had1 + HAD1-GFP strain,[2],restored
same,tolerability in mice,[4],no adverse effects were observed
same,"DOXP level, treated vs untreated parasites",[5],did not show significant difference
same,rescue of growth by exogenous IPP,P. falciparum strain 3D7 [3],effectively rescues growth
"O=CN(O)CCCP(=O)([O-])O.[Na+] [1a, Fosmidomycin]",resistance of had1 parasites,[6],resistant
same,rescue of growth by exogenous IPP,P. falciparum strain 3D7 [7],restoration effect
CC(=O)N(C/C=C/P(=O)([O-])O)OCc1ccc(C(C)C)cc1.[Na+] [16e],resistance of had1 parasites compared with wild-type,[2]; words,more resistant
same,rescue of growth by exogenous IPP,P. falciparum strain 3D7 [3],restored by IPP supplementation
CC(=O)N(CCCP(=O)(OCOC(=O)C(C)(C)C)OCOC(=O)C(C)(C)C)OCc1ccc2ccccc2c1 [compound 5],Mtb MIC99,Mtb,18.75 μg/mL and 33.2 μM
CC(=O)N(O)C/C=C/P(=O)(OCOC(=O)C(C)(C)C)OCOC(=O)C(C)(C)C [compound 3],Mtb MIC99,Mtb,9.4 μg/mL and 22 μM
same,in vivo antimalarial activity,[8],potent in vivo antimalarial activity
